By IC50 is commonly meant the concentration needed to halve the response being measured.

Read-outs that look alike come from different tables or passages of the source.

For one assay, the target named is human plasma kallikrein (Homo sapiens, UniProt P03952). As to the kind of experiment: Kallikrein inhibition assay utilizing a quenched AMC peptide substrate (FLINT). Type of assay: biochemical. The procedure: Biological Example 2: Kallikrein Inhibition Assay Utilizing a Quenched AMC Peptide Substrate
Chain of human plasma kallikrein (P03952 391-638 limits assumed): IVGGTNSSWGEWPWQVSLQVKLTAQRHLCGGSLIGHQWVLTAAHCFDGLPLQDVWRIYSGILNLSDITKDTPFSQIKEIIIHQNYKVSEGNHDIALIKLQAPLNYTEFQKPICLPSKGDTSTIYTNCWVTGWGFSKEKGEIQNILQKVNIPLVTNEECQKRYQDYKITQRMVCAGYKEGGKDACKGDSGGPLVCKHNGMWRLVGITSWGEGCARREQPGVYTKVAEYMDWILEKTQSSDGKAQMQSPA
Chain of human plasma kallikrein (P03952 20-390 partner limits assumed): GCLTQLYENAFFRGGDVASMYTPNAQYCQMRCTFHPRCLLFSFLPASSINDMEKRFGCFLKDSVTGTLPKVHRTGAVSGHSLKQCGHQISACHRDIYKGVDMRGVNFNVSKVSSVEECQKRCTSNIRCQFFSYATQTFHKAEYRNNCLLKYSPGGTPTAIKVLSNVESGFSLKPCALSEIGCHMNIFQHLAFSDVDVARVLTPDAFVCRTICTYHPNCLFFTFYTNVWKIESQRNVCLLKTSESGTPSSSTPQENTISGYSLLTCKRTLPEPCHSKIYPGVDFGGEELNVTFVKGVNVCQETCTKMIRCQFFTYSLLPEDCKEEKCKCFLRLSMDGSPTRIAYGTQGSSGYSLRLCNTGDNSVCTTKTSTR
A fluorescence intensity (FLINT) based assay was used to monitor inhibition of human plasma kallikrein. The peptide substrate, Z-Gly-Pro-Arg-AMC (Purchased from Bachem; Catalog #I-1150) was chosen based on its relatively low KM for kallikrein which enables running the assay at lower substrate concentrations to control background fluorescence. The kinetic parameters for this substrate were determined by fitting titration data to the Michaelis-Menten equation yielding a KM=40 μm, kcat=0.76 s^−1, and kcat/KM=18932 M^−1s^−1.
The Kallikrein FLINT assay was used with the following Z-Gly-Pro-Arg-AMC assay buffer: 50 mM Tris, pH 7.5, 100 mM NaCl, 5 mM CaCl2, 0.1 mg/mL BSA, 0.03% CHAPS. Assay buffer was prepared by mixing all ingredients fresh. 2× Z-Gly-Pro-Arg-AMC peptide substrate was prepared by diluting 10 mM stock into 1× assay buffer for a 100 μM working concentration (50 μM final concentration). The 2× kallikrein stock solution was prepared by diluting 14.76 μM stock in 1× assay buffer for a 4 nM working stock solution (2 nM final concentration).
Test compound(s) were run in an 11-point, 3-fold serial dilution with a final top compound concentration of 1 μM. Final DMSO in assay was 2%. Plasma kallikrein was pre-incubated for 30-minute with compound and then 50 μM substrate was added to initiate the reaction. The assay was run with either end point (EP) reads at 30 min or kinetic (KIN) reads at 5 min intervals over 30 minutes. The time course was linear using 2 nM kallikrein greater than 30 minutes. More specifically, the assay was run as follows: • 100 nL of 0.1 mM test compound was dispensed into black 384-well non-binding Greiner BioOne 784900 plate for 1 μM final concentration; • 5 μL of 1× assay buffer was dispensed to columns 24 (low control) and 5 μL 2× human kallikrein enzyme solution was dispensed to columns 1-23 (column 23 high control); • the plate was centrifuged with a “cover” plate at 500 rpm for 1 min • the plate was pre-incubated for 30 minutes at room temperature with plate covered; • 5 μL of 2× Z-Gly-Pro-Arg-AMC peptide substrate was dispensed into the entire plate, columns 1-24; • the plate was centrifuged with a “cover” plate at 500 rpm for 1 min; • the plate was read monitoring fluorescence intensity on the BMG PHERAStar at room temperature, using fluorescence module 340 nm/440 nm.
(§1) Percent inhibition (IC50) curves were generated per compound tested, and data was analyzed using a 4-parameter logistic fit using GeneData Screener. The relative fluorescence unit (RFU) values were normalized to percent inhibition using the following equation:
% inhibition=((HC−LC)−(compound−LC)/(HC−LC))*100 • where LC—low control=mean signal of human kallikrein enzyme or 100% inhibition of human kallikrein enzyme; HC—high control=mean signal of Factor XIa+Z-Gly-Pro-Arg-AMC peptide substrate with DMSO only.
(§2) An 11-point dose response curve for the test compound(s) was generated using GENDATA to determine IC50 value based on the following equation:
Y=Bottom+(Top−Bottom)/(1+10^((log IC50−X)*HillSlope)) • where Y is the % inhibition in the presence of X inhibitor concentration, Top=high control=mean signal of human kallikrein enzyme+Z-Gly-Pro-Arg-AMC peptide substrate with DMSO only; Bottom=low control—mean signal of no human kallikrein enzyme or 100% inhibition of human kallikrein enzyme; HillSlope—Hill coefficient; and IC50=concentration of compound with 50% inhibition in relation to top/high control.
Representative compounds of formula (I) of the present invention were tested according to the procedure described in Biological Example 1 and Biological Example 2 above, with results as listed in Table 3, below. Results listed in the (ER) column were measured using endpoint reads where a single fluorescence reading was measured for each well at a 30 min timepoint. […]

The target in a further assay is Factor XIa (Homo sapiens, UniProt P03951). As to the kind of experiment: Factor XIa inhibition assay utilizing a fluorophore-quencher pair peptide substrate (FLINT). To be noted: 30 min preincubation. Type of assay: biochemical.
Chain of Factor XIa (P03951 388-625 limits assumed): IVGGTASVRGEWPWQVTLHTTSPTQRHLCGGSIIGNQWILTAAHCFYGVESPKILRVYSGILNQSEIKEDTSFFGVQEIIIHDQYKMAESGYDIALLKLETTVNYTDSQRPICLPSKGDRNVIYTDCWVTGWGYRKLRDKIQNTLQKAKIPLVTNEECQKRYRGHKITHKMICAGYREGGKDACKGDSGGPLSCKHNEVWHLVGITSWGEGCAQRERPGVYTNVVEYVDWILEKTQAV
Chain of Factor XIa (P03951 19-387 partner limits assumed): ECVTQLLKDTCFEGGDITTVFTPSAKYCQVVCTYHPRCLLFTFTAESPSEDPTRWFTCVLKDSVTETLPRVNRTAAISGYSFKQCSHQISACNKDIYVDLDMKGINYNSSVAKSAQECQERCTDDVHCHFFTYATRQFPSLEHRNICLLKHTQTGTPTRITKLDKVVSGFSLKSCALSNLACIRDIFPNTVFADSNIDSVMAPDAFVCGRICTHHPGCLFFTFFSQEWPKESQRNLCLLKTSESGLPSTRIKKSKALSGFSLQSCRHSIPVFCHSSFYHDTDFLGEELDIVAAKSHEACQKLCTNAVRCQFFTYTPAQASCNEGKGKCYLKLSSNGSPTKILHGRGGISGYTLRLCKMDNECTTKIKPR
Excerpt: Biological Example 1: Factor XIa Inhibition Assay Utilizing a Fluorophore-Quencher Pair Peptide Substrate
A fluorescence intensity (FLINT) based assay was used to monitor inhibition of Factor XIa. The peptide substrate, 5Fam-KLTRAETV-K5Tamra (purchased from New England Peptide) was chosen based on the […]. Conversion of zymogen […]. The custom peptide used in this assay was based on the Arg146 cleavage site of FXI. The peptide substrate was designed with a fluorophore-quencher pair, where the fluorescence is quenched until FXIa cleaves the 8-mer peptide after the Arg residue. The substrate KM was fit to a substrate inhibition model whereby kcat=0.86 s^−1, KM=12.4 μM, Ki=61.6 μM with an enzymatic efficiency, and kcat/KM=69523 M^−1s^−1.
The Factor XIa FLINT assay was used with the following 5Fam-KLTRAETV-K5Tamra assay buffer: 50 mM Tris, pH 7.5, 100 mM NaCl, 5 mM CaCl2, 0.1 mg/mL BSA, 0.03% CHAPS. Assay buffer was prepared by mixing all ingredients fresh. 5Fam-KLTRAETV-K5Tamra peptide substrate was first prepared at 10 mM in 100% DMSO, then diluted to 3 mM in 100% DMSO. Assay buffer was then added directly to the 3 mM stock of substrate to prepare the 30 μM 2× working concentration (15 μM final concentration). The 2× Factor XIa stock solution was prepared by diluting 6.562 μM stock in 1× assay buffer for a […].
Test compound(s) were run in an 11-point, 3-fold serial dilution with a final top compound concentration of 100 nM. Final DMSO in assay was 2%. FXIa was preincubated with compound for 30-minutes and then substrate was added to initiate the reaction. The assay was run with either end point (EP) reads at 30 min or kinetic (KIN) reads at 5 min intervals over 30 minutes. The time course was linear using 100 μM FXIa greater than 30 minutes. More specifically, the assay was run as follows: • 100 nL of 0.01 mM test compound was dispensed into black 384-well non-binding Greiner BioOne 784900 plate for 0.1 μM final concentration; • 5 μL of 1× assay buffer was dispensed to column 24 (low control) and 5 μL 2× Factor XIa solution was dispensed to columns 1-23 (column 23 high control); • the plate was centrifuged with a “cover” plate at 500 rpm for 1 min • the plate was pre-incubated for 30 minutes at room temperature with plate covered; • 5 μL of 2× 5Fam-KLTRAETV-K5Tamra peptide substrate was dispensed into the entire plate, columns 1-24; • the plate was centrifuged with a “cover” plate at 500 rpm for 1 min; • the plate was read monitoring fluorescence intensity on the BMG PHERAStar at room temperature, using fluorescence module 485 nm/520 nm.
as §1
[formula] • where LC—low control=mean signal of no Factor XIa or 100% inhibition of Factor XIa; HC—high control=mean signal of Factor XIa+5Fam-KLTRAETV-K5Tamra peptide substrate with DMSO only.
as §2
[formula] • where Y is the % inhibition in the presence of X inhibitor concentration, Top=high control=mean signal of Factor XIa+5Fam-KLTRAETV-K5Tamra peptide substrate with DMSO only; Bottom=low control—mean signal of no Factor XIa or 100% inhibition of Factor XIa; HillSlope—Hill coefficient; and IC50=concentration of compound with 50% inhibition in relation to top/high control.
Representative compounds of formula (I) of the present invention were tested according to the procedure described in Biological Example 1 and Biological Example 2 above, with results as listed in Table 3, below. […]

[1] abbreviates: kinetic reads, unit μM, read-out: Kallikrein (KIN) IC50.
Setting [2] is: kinetic reads at 5 min intervals over 30 min, read-out: FXIa (KIN) IC50.
Where [3] appears, read: kinetic reads at 5 min intervals over 30 min, 30 min preincubation, read-out: Kallikrein (KIN) IC50.

Regarding `O=C(NC1CC1)c1ccc(-c2cn(C(CC3CC3)c3ccc(-c4cc(Cl)ccc4-n4cnnn4)c[n+]3[O-])nn2)cc1` (stereo not shown) [T2, 5-(5-Chloro-2-(1H-tetrazol-1-yl)phenyl)-2-(2-cyclopropyl-1-(4-(4-(cyclopropylcarbamoyl)phenyl)-1H-1,2,3-triazol-1-yl)ethyl)pyridine 1-oxide], the IC50 stood at 0.367 µM at human plasma kallikrein (end point read at 30 min, 30 min preincubation, read-out: Kallikrein (EP) IC50) and 38.1 nM at Factor XIa (end point read at 30 min, read-out: FXIa (EP) IC50).

Turning to `Cn1nncc1-c1cn([C@@H](CC2CC2)c2ccc(-c3c(-n4cnnn4)ccc(Cl)c3F)c[n+]2[O-])nn1` [T5, (S)-5-(3-Chloro-2-fluoro-6-(1H-tetrazol-1-yl)phenyl)-2-(2-cyclopropyl-1-(3′-methyl-1H,3′H-[4,4′-bi(1,2,3-triazol)]-1-yl)ethyl)pyridine 1-oxide], the figures for the IC50 at human plasma kallikrein (setting [1]) and at Factor XIa (setting [2]) were above 10 µM and 308 nM, respectively.

For the compound `Cn1nncc1-c1cn([C@H](CC2CC2)c2ccc(-c3c(-n4cnnn4)ccc(Cl)c3F)c[n+]2[O-])nn1` [T6, (R)-5-(3-Chloro-2-fluoro-6-(1H-tetrazol-1-yl)phenyl)-2-(2-cyclopropyl-1-(3′-methyl-1H,3′H-[4,4′-bi(1,2,3-triazol)]-1-yl)ethyl)pyridine 1-oxide], the IC50 on human plasma kallikrein (setting [3]) was found to be 0.312 µM; on Factor XIa (setting [2]) it was 3.4 nM.

Take `Cn1ncnc1-c1cn(C(CCOC(F)F)c2ccc(-c3c(-n4cc(C(F)(F)F)nn4)ccc(Cl)c3F)c[n+]2[O-])nn1` (stereo not shown) [T7, 5-(3-Chloro-2-fluoro-6-(4-(trifluoromethyl)-1H-1,2,3-triazol-1-yl)phenyl)-2-(3-(difluoromethoxy)-1-(4-(1-methyl-1H-1,2,4-triazol-5-yl)-1H-1,2,3-triazol-1-yl)propyl)pyridine 1-oxide]: the figures for the IC50 at human plasma kallikrein (setting [3]) and on Factor XIa (setting [2]) were around 0.334 µM and around 2.3 nM, respectively.

Consider `[O-][n+]1cc(-c2c(-n3cc(C(F)(F)F)nn3)ccc(Cl)c2F)ccc1[C@H](CCOC(F)F)n1cc(-c2cnnn2C(F)F)nn1` [T9, (S)-5-(3-Chloro-2-fluoro-6-(4-(trifluoromethyl)-1H-1,2,3-triazol-1-yl)phenyl)-2-(3-(difluoromethoxy)-1-(3′-(difluoromethyl)-1H,3′H-[4,4′-bi(1,2,3-triazol)]-1-yl)propyl)pyridine 1-oxide], for which the results for the IC50 on human plasma kallikrein (setting [1]) and at Factor XIa (setting [2]) were above 1 µM and above 100 nM, respectively.

Values taken from patent US20240228465A1, “SUBSTITUTED PYRIDINE N-OXIDE DERIVATIVES USEFUL AS A FACTOR XIA INHIBITORS” (Janssen Pharmaceutica NV, priority 2021, published 2024).
